These results are taken from US20070191465A1, “Channel blocking compounds” (priority 2003, published 2007).

The target in series [1] is T1, hSlo α subunit large conductance calcium-activated potassium (BK) channels (Homo sapiens, UniProt Q12791).
T1 construct: expressed in transfected cells; host or cells: HEK293 (transient; co-transfected with CD4 as a marker)
Nature of the series: Inside-out patch clamp of hSlo α subunit BK channels expressed in HEK293 cells. Type of series: cell-based. The conditions noted are these: for BK channel current as fraction of the control response: α subunit. As to the method: In this experiment, hSlo α subunit large conductance calcium-activated potassium (BK) channels with an N-terminal c-myc tag in the mammalian vector pcDNA (Meera et al, 1997) were transiently expressed in human embryonic kidney cells (cell type HEK293).
Human embryonic kidney cells were grown in a mix of DMEM (Dulbecco's Modified Eagle Medium, GibcoBRL Cat#12100-038) and 2.5 mM HEPES (N-[2-Hydroxyethyl]piperazine-N′-[2-ethanesulfonic acid]), supplemented with minimal essential amino acids and 10% fetal bovine serum.
Cells were subsequently plated into 24-well plates, grown to 95% confluency and transfected 24 hours later with 10 μg of hSlo and 2 μg CD4 (pcDNA) and 2 µl Lipofectamine 2000™.
Cells were plated onto cover slips 24 hours later. CD4 antibody-labelled beads were used to identify transfected cells. Macroscopic currents were recorded from excised inside-out patches at 3 days post-transfection.
A stock of 100 μM Lolitrem B was made up in dimethyl sulfoxide (DMSO). This was diluted to the appropriate concentration in electrophysiological solutions.
The bath solution that was applied to the internal side of the cell membrane of the inside-out membrane patch was (mM): 140 KMeSO3, 2 KCl, 20 HEPES (N-[2-Hydroxyethyl]piperazine-N′-[2-ethanesulfonic acid]), 5 HEDTA (N-([2-hydroxyethyl)ethylene-diaminetriacetic acid) and 3.65 CaCl2 to give 10 μM free calcium with a pH of 7.2.
The pipette solution applied to the extemal side of the cell membrane of the inside-out membrane patch was (mM): 140 KMeSO3, 2 KCl, 20 HEPES, and 2 MgCl2, with a pH of 7.2.
Macroscopic currents were recorded in an inside-out patch-clamp configuration using an amplifier, interface and data collection software. Data were filtered at 5 kHz and sampled at 20 μs intervals. Fast capacitance compensation was used to cancel the fast transient. Leak subtraction was used although the background potassium current was small.
Channels were activated by voltage pulses to +150 mV every minute in the presence of 10 μM free calcium. Control current responses were recorded over 5 minutes. Only patches that remained stable over this time were used in experiments.
Each concentration of lolitrem B was applied for 5 minutes or until the current response had stabilised and fractional block calculated as the decrease in current as a fraction of the control. The current amplitude was the mean current over the last half of the voltage pulse to +150 mV.
A general note: Patch clamp records ionic current or voltage across a cell membrane.

For a further series, the target named is T2, α+β1 BK channels (Homo sapiens, UniProt Q12791).
T2 construct: expressed in transfected cells; host or cells: human embryonic kidney cells (HEK293)
T2 sequence (Q12791 whole entry): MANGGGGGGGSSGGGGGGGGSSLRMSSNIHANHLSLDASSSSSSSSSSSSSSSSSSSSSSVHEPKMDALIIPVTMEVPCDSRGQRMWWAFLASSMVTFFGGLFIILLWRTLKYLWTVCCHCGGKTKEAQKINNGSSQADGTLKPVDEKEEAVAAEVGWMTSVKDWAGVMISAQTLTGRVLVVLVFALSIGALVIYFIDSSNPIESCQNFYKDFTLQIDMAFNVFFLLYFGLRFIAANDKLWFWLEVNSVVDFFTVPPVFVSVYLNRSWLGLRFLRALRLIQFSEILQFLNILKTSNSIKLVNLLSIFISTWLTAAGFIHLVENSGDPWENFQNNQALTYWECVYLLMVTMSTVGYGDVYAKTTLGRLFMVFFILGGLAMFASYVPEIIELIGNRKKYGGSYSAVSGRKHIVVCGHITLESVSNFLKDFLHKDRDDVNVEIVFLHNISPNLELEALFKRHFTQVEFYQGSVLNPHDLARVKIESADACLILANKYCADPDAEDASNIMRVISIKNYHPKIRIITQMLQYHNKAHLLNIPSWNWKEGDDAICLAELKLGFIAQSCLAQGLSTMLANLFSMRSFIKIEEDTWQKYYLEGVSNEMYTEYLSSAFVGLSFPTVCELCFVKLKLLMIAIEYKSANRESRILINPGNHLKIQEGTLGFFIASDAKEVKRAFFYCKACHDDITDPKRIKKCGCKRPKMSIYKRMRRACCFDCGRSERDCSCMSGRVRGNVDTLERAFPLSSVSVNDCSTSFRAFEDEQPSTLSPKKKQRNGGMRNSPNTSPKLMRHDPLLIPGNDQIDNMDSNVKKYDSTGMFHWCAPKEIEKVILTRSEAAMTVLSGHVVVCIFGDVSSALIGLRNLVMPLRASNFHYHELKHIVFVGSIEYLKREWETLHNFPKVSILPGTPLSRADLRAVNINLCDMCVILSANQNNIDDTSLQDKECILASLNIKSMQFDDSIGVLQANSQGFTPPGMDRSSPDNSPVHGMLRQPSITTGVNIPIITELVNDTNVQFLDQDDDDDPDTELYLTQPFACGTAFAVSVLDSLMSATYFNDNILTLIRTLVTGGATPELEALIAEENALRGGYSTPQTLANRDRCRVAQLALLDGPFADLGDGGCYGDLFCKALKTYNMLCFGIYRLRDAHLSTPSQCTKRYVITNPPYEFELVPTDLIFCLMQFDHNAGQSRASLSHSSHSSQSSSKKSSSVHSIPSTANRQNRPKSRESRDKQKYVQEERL
T2 sequence (Q16558 whole entry partner): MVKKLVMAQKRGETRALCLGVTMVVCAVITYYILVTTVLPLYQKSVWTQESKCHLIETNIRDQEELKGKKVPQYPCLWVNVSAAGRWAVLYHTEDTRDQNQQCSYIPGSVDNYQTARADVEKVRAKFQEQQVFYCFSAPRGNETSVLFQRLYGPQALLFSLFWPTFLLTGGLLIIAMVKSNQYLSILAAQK
Nature of the series: Patch clamp of α+β1 BK channels expressed in human embryonic kidney cells. The conditions noted are these: for IC50: IC50, α + β1, +150 mV, 10 μM internal free calcium; for h = Hill coefficient: α + β1. Type of series: cell-based. As to the method:
(§1) Current amplitude (I′) 5 minutes after addition of increasing lolitriol concentrations, shown as a fraction of the control response. Lolitriol was applied to α+β1 channels (solid circles) and to α+β4 channels (open circles). 31-epilolitrem B was applied to α+β1 channels (solid triangles) and to α+β4 channels (open triangles). Shaded triangles are data points from a single cell to which the curve was fitted. Lolitrem B was applied to hSlo channels (solid squares) a previous study and is shown for comparison. The current response was averaged over the last half of a voltage pulse to +150 mV for 50 ms, with 10 μM internal free calcium. The vertical bars show ±1 S.E.M. in 3 or more cells. The curve is a fit of a Hill-type equation to the data.
(§2) We used BK channels containing beta subunits that are expressed in smooth muscle ([…]) and brain (β4). BK channels with subunit combinations α+β1 or α+β4 were expressed in human embryonic kidney cells and their function assayed by patch clamping.
(§3) hSlo α subunit large conductance calcium-activated potassium channels in pcDNA3 (Meera et al., 1997) together with the human β4 subunit in pEGFP-N1 were transiently expressed in human embryonic kidney cells (HEK293). HEK cells were grown in a mix of DMEM (Dulbecco's Modified Eagle Medium) and 2.5 mM HEPES (N-[2-Hydroxyethyl]-piperazine-N′-[2-ethanesulfonic acid]), supplemented with minimal essential amino acids and 10% fetal bovine serum. Cells were subsequently plated onto 24-well plates, grown to 95% confluency and transfected 24 hours later with 10 μg of hSlo, 8 μg of β4 and 2 μl Lipofectamine 2000™. Cells were plated onto cover slips 24 hours later. Transfected cells expressed green fluorescent protein and were identified under UV light by their fluorescence.

Series [2] concerns the target T3, α+β4 BK channels (hSlo α subunit with human β4 subunit) (Homo sapiens, UniProt Q12791).
T3 construct: expressed in transfected cells; host or cells: HEK293 (transient)
The series can be described thus: Patch clamp of α+β4 BK channels expressed in human embryonic kidney cells. Format: cell-based. The conditions noted are these: for h = Hill coefficient: α + β4. As to the method: as §1, §2, §3

Series [3] concerns the target T4, BK channel (Homo sapiens, UniProt Q12791). The series can be described thus: Degree of antagonist inhibition of BK channels, subunit composition not stated. Format: cell-based.
A further series relates to mice. The conditions noted are these: known from literature (Munday-Finch); cited from earlier work.
For series [4], the target named is T4, BK channel. The conditions noted are these: McMillan et al., 2003; cited from earlier work.

Several values for one entry are separate records, joined by “and”; a condition that tells them apart may be missing. Equal entries are not always repeated. Entries after “also recorded” stand apart in the source; their conditions may differ.

T3 sequence (Q12791 whole entry): as the sequence (Q12791 whole entry) above
T3 sequence (Q86W47 whole entry partner): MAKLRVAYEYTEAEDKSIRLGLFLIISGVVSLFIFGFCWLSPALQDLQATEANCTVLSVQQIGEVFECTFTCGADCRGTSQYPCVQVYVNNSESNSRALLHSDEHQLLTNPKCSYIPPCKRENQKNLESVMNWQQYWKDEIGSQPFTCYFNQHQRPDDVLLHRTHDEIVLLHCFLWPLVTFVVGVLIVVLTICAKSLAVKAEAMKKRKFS
T4 sequence (Q12791 whole entry): as the sequence (Q12791 whole entry) above
T1 sequence (Q12791 whole entry): as above

Turning to `CC(C)=CC1OC2C(OC3CCC4(C)C5(C)c6[nH]c7ccc8c(c7c6CC5CCC4(O)C34OC24)CC2C(C8=O)C(C)(C)OC2(C)C)C(C)(C)O1` (centres unmarked) [31-epilolitrem B], the “BK channel current as fraction of the control response” value (from here on “BK channel current as fraction”) in series [1] (100 nM) is on record as 0.06±0.02. Also, the “current response as fraction of control after wash-out” value in series [1] (after 100 nM, wash-out with control solution for 26 minutes, one experiment) came to 0.59. On α+β1 BK channels, the IC50 (as a rule, the concentration that gives 50% inhibition) was ~58 nM and 58 nM; the “h = Hill coefficient” value was 2.7. For the same compound, the “h = Hill coefficient” value in series [2] is reported as 2.2. Moreover, the “degree of antagonist inhibition” value on BK channel [3] (approximately 200 nM) is recorded as “approximately 100%”. Besides, the tremorgenicity entry with mice is listed as “non-tremorgenic”.

`CC1(C)OC(C)(C)C2C(=O)c3ccc4[nH]c5c(c4c3CC21)C[C@@H]1CC[C@@]2(O)C3=CC(=O)[C@@H](C(C)(C)O)OC3CC[C@]2(C)[C@@]51C` (some centres unmarked) [lolilline]: in the series with mice, the tremorgenicity result is recorded as “non-tremorgenic”.

Consider `CC(C)=CC1OC2C(OC3CCC4(C)C5(C)c6[nH]c7ccc8c(c7c6CC5CCC4(O)C34OC24)CC2C(C8=O)C(C)(C)OC2(C)C)C(C)(C)O1` (centres unmarked) [lolitrem B], for which the entries for the “inhibition of the BK channel current (in words)” value in series [1] (2 nM) and in series [1] (20 nM applied to the perfusion bath) were “partial inhibition” and “complete inhibition”, respectively. In addition, the “reversal of current block by wash-out” value in series [1] (10 nM or greater, wash-out with control solution for 30 minutes at 4 ml/min) was “not able to be reversed; also recorded: could not be reversed”. In addition, the IC50 in series [1] (IC50 (concentration of half maximal inhibition), α alone, voltage pulse to +150 mV, 10 μM free calcium, Hill equation fit, 11 cells) is 3.7 nM and ~3.7 nM. For the same compound, the “degree of antagonist inhibition” value in series [1] (approximately 20 nM) is “approximately 97%”. The “h = Hill coefficient” value in series [1] (α alone) is 1.7. Moreover, the tremorgenicity entry in the series on mice was “tremorgenic”.

Turning to `CC(C)=CCOC(C)(C)[C@H]1O[C@H]2CC[C@@]3(C)[C@@](O)(CC[C@H]4Cc5c([nH]c6ccc7c(c56)C[C@@H]5[C@@H](C7=O)C(C)(C)OC5(C)C)[C@@]43C)[C@]23O[C@@H]3[C@@H]1O` [lolitrem E], the “BK channel current as fraction” value in series [1] (100 nM) is listed as 0.01. Moreover, the “degree of antagonist inhibition” value in series [1] (approximately 100 nM) was “approximately 100%”. Further, the tremorgenicity entry in the series on mice is reported as “partial-tremorgenic”.

On to `CC(C)(O)C1OC2CCC3(C)C4(C)c5[nH]c6ccc7c(c6c5CC4CCC3(O)C23OC3C1O)CC1C(C7=O)C(C)(C)OC1(C)C` (centres unmarked) [lolitriol], for which the figures for the “BK channel current as fraction” value in series [1] (100 nM) and in series [1] (200 nM) were 0.29 and 0.25, respectively. The “current response as fraction of control after wash-out” value in series [1] (wash-out with control solution for 30 minutes at 4 ml/min) came to 0.86. The half-inhibitory concentration (IC50) at α+β1 BK channels is ~195 nM and 195 nM. The figures for the “h = Hill coefficient” value (at α+β1 BK channels; in series [2]) were 2.3 and 2.7, respectively. Further, the “concentration required to inhibit α+β4 channels compared with α+β1 channels” value in series [2] (α+β4 versus α+β1) is listed as “Twice”. For the same compound, the “degree of antagonist inhibition” value at BK channel [3] (approximately 1000 nM) is recorded as “approximately 100%”. Besides, the tremorgenicity entry in the series on mice is recorded as “non-tremorgenic”.

As to desoxypaxilline [reference compound], the “concentration needed for the same degree of BK inhibition as paxilline” value at BK channel [4] is listed as 24 times. In the series with mice, the tremorgenicity result is on record as “non-tremorgenic”.
